Experimental data from patent US5110725A, “Optical probe for the cytochrome P-450 cholesterol side chain cleavage enzyme” (The United States of America as represented by the United …, priority 1991, dated 1992).

Legend:
[1] = molecular target: T1, P-450scc enzyme (Gallus gallus, UniProt O13254); experiment: Spectrofluorometry of resorufin production in mitochondrial preparations from chicken granulosa and MA-10 cells; format: biochemical; settings: for effect of inhibitor on observed resorufin fluorescence: added to steroidogenic mitochondrial preparations incubated with the probe
T1 sequence (O13254 32-508): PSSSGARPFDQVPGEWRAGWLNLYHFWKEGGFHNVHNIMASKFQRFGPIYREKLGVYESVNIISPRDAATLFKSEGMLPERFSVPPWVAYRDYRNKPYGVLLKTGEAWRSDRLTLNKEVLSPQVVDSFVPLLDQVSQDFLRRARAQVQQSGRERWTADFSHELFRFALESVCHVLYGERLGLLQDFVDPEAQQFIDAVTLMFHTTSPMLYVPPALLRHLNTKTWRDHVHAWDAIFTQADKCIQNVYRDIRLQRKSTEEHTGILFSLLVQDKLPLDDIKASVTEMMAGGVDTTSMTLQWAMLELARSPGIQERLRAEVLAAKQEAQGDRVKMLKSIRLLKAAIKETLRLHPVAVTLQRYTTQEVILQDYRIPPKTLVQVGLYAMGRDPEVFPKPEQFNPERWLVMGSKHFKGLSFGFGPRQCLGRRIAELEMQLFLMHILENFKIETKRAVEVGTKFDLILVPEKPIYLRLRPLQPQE
Procedure: (§1) A saturated stock solution of probe 10 was made in 95% ethanol and filtered with a 0.2 μm filter to a concentration of 100 μM. Probe 10 was added at 1:50 or 1:100 dilutions to cell or mitochondria suspensions.
(§2) Cell Preparations: Granulosa cell layers were collected separately from the 5 largest preovulatory follicles of laying hens and cells were dispersed by collagenase digestion (Endocrinology 122:651-658). The cell concentration was adjusted to 1×10^6 cells/mL in modified medium 199 (no phenol red; added 25 mM HEPES, 0.35 g/L sodium bicarbonate, 100 mg/L 1-glutamate, and 1 g/L bovine serum albumin). The MA-10 cells (Endocrinology 108:88-95) were grown in RPMI-1640 medium supplemented with 15% horse serum and used three days after plating. Cell cultures of the Chinese hamster ovary (CHO) cell line were grown in spinner flasks with Ham's F-10 medium supplemented with 15% bovine calf serum. Media were obtained from Gibco BRL (Gaithersburg, Md.) and sera were obtained from HyClone Laboratories (Logan, Utah). Except where indicated all other reagents for cell preparations were obtained from Sigma Chemical Co. (St. Louis, Mo.). Cells in suspension (1×10^6 /mL) were kept on ice prior to use and at 37° C. during all incubations with probe 10.
Spectrofluorometry: Fluorescence emission measurements were obtained on a SPEX Fluorolog-II spectrofluorometer (SPEX Industries, Inc., Edison, N.J.) fitted with a thermostatted cuvette holder and interfaced to an IBM-AT computer for data collection and processing. Resorufin fluorescence was measured from 550-700 nm (8 nm slit width) with 530 nm excitation (10 nm slit width). Spectra were background-corrected by spectral subtraction of the initial (zero) time point. Samples were incubated at 37° C. during the experiment.

[2] = tested on: granulosa cells; experiment: Conventional two-laser flow cytometric analysis of P-450scc activity in granulosa cells; format: cell-based, laying hens; settings: 37° C., 5 min to 2 h
Procedure: as §2
Uptake of the substrate (green fluorescence) plateaued at 30 minutes, presumably as the cells equilibrated with the P-450scc probe in solution.

[3] = tested on: P-450scc enzyme; experiment: Spectrofluorometry of probe metabolism in MA-10 and granulosa cell suspensions; format: cell-based
Procedure: as §1
(§3) Cell Preparations: Granulosa cell layers were collected separately from the 5 largest preovulatory follicles of laying hens and cells were dispersed by collagenase digestion (Endocrinology 122:651-658). The cell concentration was adjusted to 1×10^6 cells/mL in modified medium 199 (no phenol red; added 25 mM HEPES, 0.35 g/L sodium bicarbonate, 100 mg/L 1-glutamate, and 1 g/L bovine serum albumin). […]
(§4) Spectrofluorometry: Fluorescence emission measurements were obtained on a SPEX Fluorolog-II spectrofluorometer (SPEX Industries, Inc., Edison, N.J.) fitted with a thermostatted cuvette holder and interfaced to an IBM-AT computer for data collection and processing. Resorufin fluorescence was measured from 550-700 nm (8 nm slit width) with 530 nm excitation (10 nm slit width). […]
To confirm cellular metabolism, both MA-10 and granulosa cell suspensions were incubated with varying concentrations of the probe substrate. Fluorescence emission was monitored at discrete times from 0-4 h. […] Based on the amount of fluorescence in a typical cell incubation the cumulative conversion of the probe was in the concentration range of 100-300 pM. […]

[4] = tested on: nonsteroidogenic CHO cells; experiment: Spectrofluorometry with mitochondrial preparations from nonsteroidogenic CHO cells; format: biochemical, Chinese hamster
Procedure: as §1
as §2, with “Except where indicated all other reagents for cell preparations were obtained from Sigma Chemical Co. (St. Louis, Mo.). Cells in suspension (1×10^6 /mL) were kept on ice prior to use and at 37° C. during all incubations with probe 10.” left out
as §4

[5] = format: physicochemical; settings: 95% ethanol
Procedure: as §1

[6] = tested on: nonsteroidogenic CHO cells; experiment: Fourier transform flow cytometry with nonsteroidogenic CHO cells; format: cell-based, Chinese hamster
Procedure: as §2
A single argon laser tuned to 514 nm was used to excite both the substrate and product. […]
(§5) By monitoring spectral changes in the cellular fluorescence at discrete time points from 30 min to 5 h with the FTCS-1 an increased metabolism of the substrate to the product resorufin was observed. […]

[7] = Fluorescence quantum efficiency relative to the resorufin anion; format: physicochemical; settings: resorufin conjugated at C-22
Excerpt: Referring now to FIG. 2, the P-450scc probe 10 is a cholene-based steroid covalently conjugated at the C-22 position to resorufin. As a result of this conjugation the resorufin fluorescence is shifted and has a 40-fold lower quantum efficiency than the resorufin anion. Specificity of probe 10 for the P-450scc enzyme is achieved by incorporating known structural and stereochemical features to the cholene-ring for enzyme recognition. Generation of a fluorescent signal is obtained by release of the resorufin moiety 16 by the side chain cleavage enzyme.
Resorufin (7-hydroxy-3H-phenoxazin-3-one) was chosen as a fluorogenic reporter because of its advantageous spectral properties and its modest size. […] Presumably, metabolism of a resorufin ether 10 by P-450scc proceeds by hydroxylation at the C-1 position of the ether side chain, to yield a resorufin hemiacetal that undergoes cleavage to afford the highly fluorescent resorufin anion. The fluorescence signal generated by the formation of resorufin anion is a quantitative indicator of enzyme activity.

[8] = tested on: granulosa or MA-10 cells; experiment: Progesterone radioimmunoassay after incubation of granulosa or MA-10 cells with the probe; format: cell-based; settings: 3-5 h incubation, 1-2 μM probe
Procedure: as §3, with “albumin). The MA-10 cells (Endocrinology 108:88-95) were grown in RPMI-1640 medium supplemented with 15% horse serum and used three days after plating. Cell cultures of the Chinese hamster ovary (CHO) cell line were grown in spinner flasks with Ham's F-10 medium supplemented with 15% bovine calf serum.” for “albumin).”
To confirm cellular metabolism, both MA-10 and granulosa cell suspensions were incubated with varying concentrations of the probe substrate. Fluorescence emission was monitored at discrete times from 0-4 h. […] Based on the amount of fluorescence in a typical cell incubation the cumulative conversion of the probe was in the concentration range of 100-300 pM. After long (3-5 h) incubations of granulosa or MA-10 cells with a high concentration (1-2 μM) of the P-450scc probe, a two-fold accumulation of progesterone over the background progesterone content of the cells was measured by specific progesterone radioimmunoassay (Endocrine Sciences, Tarzana, Calif.).

[9] = tested on: P-450scc; experiment: Selectivity of the probe in intact mitochondria and cells; format: cell-based
Procedure: as §1

[10] = tested on: granulosa cells; experiment: Fourier transform flow cytometry of substrate metabolism in individual granulosa cells; format: cell-based, laying hens
Procedure: as §2, with “Except where indicated all other reagents for cell preparations were obtained from Sigma Chemical Co. (St. Louis, Mo.). Cells in suspension (1×10^6 /mL) were kept on ice prior to use and at 37° C. during all incubations with probe 10.” left out
The Fourier transform flow cytometer was used to track the metabolism of the fluorogenic substrate in individual granulosa cells. […] Using this instrument, cellular fluorescence of the substrate is resolved from the cellular fluorescence of the product, resorufin anion, based on their unique spectral characteristics during the uptake and metabolism of the P-450scc probe.
as §5

Compound | effect of inhibitor on observed resorufin fluorescence [1] | product (red fluorescence) in cells during incubation [2] | time at which uptake of the substrate (green fluorescence) plateaued [2] [min] | resorufin fluorescence over time ([3]; MA-10 and granulosa cell suspensions, 0-4 h, varying probe concentrations) | cumulative conversion of the probe ([3]; typical cell incubation, based on amount of fluorescence) [pM] | production of fluorescence [4] | concentration of saturated stock solution [5] [µM] | cellular fluorescence spectrum ([6]; CHO cells, 3 h incubation) | metabolism of the substrate to resorufin ([6]; nonsteroidogenic CHO cells) | quantum efficiency lower than the resorufin anion [7] [fold] | accumulation of progesterone over background progesterone content of the cells [8] | resorufin production ([1]; steroidogenic mitochondria (chicken granulosa, MA-10), 30 min to 5 h, substrate 0.01 to 2 μM) | selectivity [9] | average ratio of the two fluorescent components (substrate and resorufin) over time ([10]; 30 min to 5 h) | alignment of the cell distribution with the product resorufin ([10]; after 5 h) [%]
CCC1(c2ccc(N)cc2)CCC(=O)NC1=O (stereo not shown) [aminoglutethimide] | attenuated the observed fluorescence |  |  |  |  |  |  |  |  |  |  |  |  |  | 
CC(=O)N1CCN(c2ccc(OCC3COC(Cn4ccnc4)(c4ccc(Cl)cc4Cl)O3)cc2)CC1 (stereo not shown) [ketoconazole] | attenuated the observed fluorescence |  |  |  |  |  |  |  |  |  |  |  |  |  | 
C[C@H](COc1ccc2nc3ccc(=O)cc-3oc2c1)[C@H]1CC[C@H]2[C@@H]3CC=C4C[C@@H](O)CC[C@]4(C)[C@H]3CC[C@]12C [probe 10, 22-phenoxazonoxy-5-cholene-3β-ol] |  | continued to increase | 30 | linear increase in resorufin fluorescence | 100 to 300 | no production of fluorescence | 100 | remained primarily consistent with the substrate spectrum | no evidence of significant metabolism | 40 | two-fold | resorufin production was observed | selective for P-450scc activity | linear increase | ~100
